Assay [1] deals with T1, ACE (Sigma, A2580) (Sus scrofa, UniProt F1RRW5).
T1 construct: ACE from porcine kidney; purchased Sigma A2580; host or cells: porcine kidney
T1 sequence (F1RRW5 34-1309): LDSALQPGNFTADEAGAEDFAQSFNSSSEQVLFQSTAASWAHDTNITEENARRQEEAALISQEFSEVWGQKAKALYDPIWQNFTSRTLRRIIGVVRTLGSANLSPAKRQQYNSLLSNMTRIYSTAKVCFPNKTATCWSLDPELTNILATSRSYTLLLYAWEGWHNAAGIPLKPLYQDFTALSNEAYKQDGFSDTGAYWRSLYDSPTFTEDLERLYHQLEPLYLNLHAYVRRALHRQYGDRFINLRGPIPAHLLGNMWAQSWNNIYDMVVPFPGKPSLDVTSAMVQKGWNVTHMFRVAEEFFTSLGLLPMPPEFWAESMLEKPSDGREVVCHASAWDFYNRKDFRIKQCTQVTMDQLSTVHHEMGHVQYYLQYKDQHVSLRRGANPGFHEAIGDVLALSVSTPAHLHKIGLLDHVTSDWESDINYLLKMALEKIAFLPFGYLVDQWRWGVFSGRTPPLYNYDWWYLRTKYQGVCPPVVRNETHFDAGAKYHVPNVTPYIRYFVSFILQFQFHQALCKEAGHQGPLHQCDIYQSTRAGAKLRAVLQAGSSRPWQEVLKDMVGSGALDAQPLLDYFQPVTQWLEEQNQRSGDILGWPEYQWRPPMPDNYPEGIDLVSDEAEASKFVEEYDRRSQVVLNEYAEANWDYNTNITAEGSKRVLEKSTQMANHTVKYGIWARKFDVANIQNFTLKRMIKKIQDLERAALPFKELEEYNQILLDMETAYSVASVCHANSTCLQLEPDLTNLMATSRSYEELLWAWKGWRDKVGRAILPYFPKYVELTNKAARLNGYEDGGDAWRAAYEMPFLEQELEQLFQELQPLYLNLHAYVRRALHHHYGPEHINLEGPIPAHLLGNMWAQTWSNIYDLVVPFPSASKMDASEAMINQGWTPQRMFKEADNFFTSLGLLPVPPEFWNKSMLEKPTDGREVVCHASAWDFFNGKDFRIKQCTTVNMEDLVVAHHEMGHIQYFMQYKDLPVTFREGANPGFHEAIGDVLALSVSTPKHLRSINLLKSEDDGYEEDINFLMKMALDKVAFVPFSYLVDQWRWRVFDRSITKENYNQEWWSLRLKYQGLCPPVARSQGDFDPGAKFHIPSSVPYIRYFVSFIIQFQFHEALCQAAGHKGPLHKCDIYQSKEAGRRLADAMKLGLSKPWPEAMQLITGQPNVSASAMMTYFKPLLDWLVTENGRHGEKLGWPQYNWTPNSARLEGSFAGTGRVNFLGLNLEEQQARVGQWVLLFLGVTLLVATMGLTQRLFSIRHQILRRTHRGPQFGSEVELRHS
The assay is described as follows: ACE enzymatic activity assay. The settings on record: Ki class; compounds tested in 5% DMSO, 12 compound concentrations. It is filed as biochemical, porcine. The method, boiled down:
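ACE (1 nM final) in 50 mM HEPES, 300 mM NaCl, 0.01% Brij-35, pH 7.5, with compound in 5% DMSO at 12 concentrations, 25 °C. Substrate cleavage run ~30 min, stopped with EDTA; fluorescence read at excitation 320 nm, emission 405 nm.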

In assay [2] the target is T2, Carboxypeptidase A (Bos taurus, UniProt P00730).
T2 sequence (P00730 111-419): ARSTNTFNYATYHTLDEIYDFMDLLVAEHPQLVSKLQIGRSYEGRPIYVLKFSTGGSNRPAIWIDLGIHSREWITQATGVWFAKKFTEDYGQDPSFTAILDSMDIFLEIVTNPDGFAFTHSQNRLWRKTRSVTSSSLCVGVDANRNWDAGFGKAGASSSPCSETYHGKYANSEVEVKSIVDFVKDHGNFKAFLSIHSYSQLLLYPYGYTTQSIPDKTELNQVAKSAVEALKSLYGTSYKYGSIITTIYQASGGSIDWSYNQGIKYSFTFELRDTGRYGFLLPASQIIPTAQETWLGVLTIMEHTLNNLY
The assay is described as follows: Carboxypeptidase A activity assay. It is filed as biochemical. Conditions: Ki class; compounds tested in 5% DMSO, 12 compound concentrations. The method, boiled down: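 Bovine carboxypeptidase A activity followed at 328 nm in 5% DMSO, reaction stopped with EDTA. Activity measured at 12 compound concentrations. Ki derived from apparent Ki as Ki=Kiapp/(1+[S]/Km).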

The term Ki denotes the dissociation constant of the complex between target and ligand, obtained from inhibition or displacement.

On to `CC(C)CC(N[C@@H](Cc1cncn1Cc1cc(Cl)cc(Cl)c1)C(=O)O)C(=O)O` (single isomer, unassigned) [HE, 2-[1-Carboxy-2-[3-(3,5-dichloro-benzyl)-3H-imidazol-4-yl]-ethylamino)4-methyl-pentanoic acid], for which the Ki in assay [1] and in assay [2] was 10 to 50 µM throughout.

The values are drawn from patent publication US7045532B2 (Millennium Pharmaceuticals, Inc., priority 1999, dated 2006).
